# From patent publication US11679100B2, “Methods of enhancing immunity” (The Regents of the University of California, priority 2018, dated 2023)
# How the values were obtained:
# CL66-luc tumor cell = assay: Cytotoxicity assay, luciferase activity; format: cell-based; conditions: 24, 48 and 72 hrs
# Method: Cytotoxicity Assay—Taxol and LA1 cytotoxicity towards the CL66-luc tumor cell was determined by measuring luciferase activity in the tumor cells after exposure to LA1 or Taxol. CL66-luc cells (1,000 cells/well) were seeded into 96-well plates overnight at 37° C. prior to treatment with titrating concentrations of LA1 or Taxol dissolved in 1% DMSO in IDMEM for 24, 48 and 72 hrs. Cells treated with vehicle (1% DMSO in IDMEM) were a negative control. Media was aspirated from the cultured cells and 100 μL of a 150 μg/mL working solution of D-Luciferin in pre-warmed DMEM (10% FBS) was added to each well. The plates were incubated at 37° C. for 5 mins prior to reading luminescence using the EnSpire Plate Reader (PerkinElmer).
# LLC tumor cells = assay: Adoptive transfer of LA1-treated tumor associated macrophages co-implanted with LLC tumor cells; format: in vivo, mice; conditions: tumor-derived macrophages treated with LA1, mixed 1:1 with LLC cells
# Method: In vivo Macrophage Adoptive Transfer Experiments—F4/80+ cells were isolated from single cell suspensions of 700-800 mg LLC tumors from donor WT or Itgam−/− mice by FACS sorting. Primary bone marrow derived macrophages from WT or Itgam−/− mice were polarized and harvested into a single cell suspension. Alternatively, WT tumor derived macrophages were incubated with LA1 or saline. Purified macrophages were admixed 1:1 with LLC tumor cells and 5×10^5 total cells were injected subcutaneously into syngeneic host WT or Itgam−/− mice. Tumors were excised and weights were determined 14 days after inoculation.
# CL66-Luc breast tumors = assay: Orthotopic CL66-Luc breast tumor model; format: in vivo, Balb/cJ mice
# Method: Tumor Studies—Subcutaneous tumor studies: 5×10^5 LLC or B16 cells were injected subcutaneously into syngeneic (C57BL/6) 6- to 8-week old WT or Itgam^−/− mice (n=18). Tumors were excised at 7, 14 or 21 days, cryopreserved in OCT, lysed for RNA purification or collagenase-digested for flow cytometric analysis of CD11b+, F4/80+ and Gr1+ expression. Tumor volumes were calculated using the equation (l^2×w)/2. CL66-luc cells (0.5×10^6 cells) were suspended in 50 μL of basement membrane extract Matrigel (BD Pharmingen) in PBS (1:1) and inoculated orthotopically in the fourth mammary fat pad of female Balb/cJ mice. Tumor dimensions were measured every 2 days, and tumor volume was calculated using the equation: V (mm^3)=[…], where length is the longest diameter of the tumor and width is the shorter diameter.
# Mice were divided into four cohorts: vehicle control treated, LA1 only treated, Taxol only treated, LA1 and Taxol treated. LA1 (2 mg/kg) was dissolved in 2% DMSO and 1% Tween-20 in saline and Taxol (2.5 mg/kg) was dissolved in a 1:1:6 ratio of Cremophor EL: Ethanol:Saline. LA1 was administered by intraperitoneal injection (i.p.) daily, while Taxol was administered every other day by i.p. injection until end-point. LA1+Taxol treated mice received LA1 i.p. in the morning followed by Taxol i.p. within 4 hours. Tumor burden was evaluated every other day by caliper measurements. Prior to tissue collection, mice were anesthetized by ketamine/xylazine and the lungs were perfused with PBS followed by 10% formalin and harvested for fixation. Mammary tumor tissue was harvested and divided for fixation (10% formalin or OCT), snap frozen, or made into single-cell suspensions and analyzed by flow cytometric analysis. For survival studies, Balb/c mice bearing CL66-derived tumors were treated for 6 weeks after the first treatment and monitored thereafter. End point was considered when the tumor reached […] in diameter (n=10-15).
# Immunohistochemistry—Tumor samples were collected and cryopreserved in O.C.T. Sections (5 μm) were fixed in 100% cold acetone, blocked with 8% normal goat serum for 2 hours, and incubated with primary antibodies at […] for 2 hours at room temperature. Sections were washed 3 times with PBS and incubated with fluorescent secondary antibodies. Primary antibodies where: F4/80 (BM8, eBioscience), CD4 (H129.19, BD Bioscience), CD8 (53-6.7, BD Bioscience), CD31 (MEC13.1, BD Bioscience), desmin (RB0914-P1, LabVision, Thermo Scientific), and anti-smooth muscle actin (SMA) (1A4, Sigma-Aldrich). Slides were counterstained with 4′,6-diamidino-2-phenylindole (DAPI) to identify nuclei. Immunofluorescence images were collected on a Nikon microscope (Eclipse TE2000-U) and analyzed using Metamorph image capture and analysis software (Version 6.3r5, Molecular Devices). Pixels/field or cell number/field were quantified in five 100× fields from 5 biological replicates. For LA1 studies, immunohistochemical staining was quantified by counting marker positive cells in 3 different areas analyzed at 40× using a light microscope for each tumor tissue (n=4−6). Tissues that were stained with fluorochrome conjugated secondary antibodies were counter stained with DAPI and analyzed using the Zeiss 700 LSM confocal microscope and Zen software (Carl Zeiss Group, Hartford, Conn.).
# Alternatively, immunostaining was performed on formalin fixed, paraffin-embedded tumor tissues. Deparaffinized tissue sections (5 μm) were either stained with hemotoxylin-eosin or were subjected to antigen retrieval by steam heating in an acidic pH solution (Citrate-based, Vector Laboratories) prior to immune staining for α-SMA (clone 1A4, Fisher Scientific), MMP9 (polyclonal rabbit, Abcam), S100A8 (goat polyclonal (M-19), Santa Cruz), CD31 (clone RM0032-1D12, Abcam), or ARG1 (sc-18351, Santa Cruz) at 4° C. overnight. […]
smiles,measurement,setting,value
"O=C(O)c1ccc(-c2ccc(/C=C3\SC(=S)N(Cc4ccccc4)C3=O)o2)cc1 [LA1, leukadherin 1]",CL66-Luc breast tumor cell growth in vitro,CL66-luc tumor cell,no effect on CL66-Luc breast tumor cell growth in vitro
same,tumor growth after co-implantation of treated macrophages with LLC cells,LLC tumor cells,completely inhibited tumor growth
same,CD8+ T cells in tumors,CL66-Luc breast tumors; CL66-Luc tumors,increased the presence of CD8+ T cells
same,MHCII+ macrophages in tumors,CL66-Luc breast tumors; CL66-Luc tumors,increased the presence of MHCII+ macrophages
same,"expression of Arginase1, S100A8 and MMP9 in tumors",CL66-Luc breast tumors; CL66-Luc tumors,"inhibited expression of Arginase1, S100A8 and MMP9 in CL66-Luc tumors"
same,"MHCII, CD206, Arg1, MMP9 and S100A8 expression in TAMs",CL66-Luc breast tumors; CL66 Luc model,"stimulating MHCII expression and reducing CD206, Arg1, MMP9 and S100A8 expression in TAMs"
same,"CL66-Luc tumor growth, combination with irradiation",CL66-Luc breast tumors; LA1 2 mg/kg + IR 20 Gy,synergized with irradiation to suppress CL66-Luc breast tumor growth
same,CL66-Luc tumor growth,"CL66-Luc breast tumors; LA1 2 mg/kg i.p. daily, compared with taxol","potently reduced tumor growth in syngeneic, orthotopically implanted CL66-Luc breast tumors more effectively than taxol"
same,survival,CL66-Luc breast tumors; mouse models of cancer,prolong survival in mouse models of cancer
same,CL66 Luc tumor growth relative to control tumors,"CL66-Luc breast tumors; syngeneic, immune competent mice",25%
